One data set concerns HIV-1 (strain LAV). The class given is cell-based. The text has this: It is often desirable to screen a number of racemic mixtures of nucleosides as a preliminary step to determine which warrant further resolution into enantiomerically enriched components and further evaluation of antiviral activity. The ability of nucleosides to inhibit HIV can be measured by various experimental techniques. The technique used herein, and described in detail below, measures the inhibition of viral replication in phytohemagglutinin (PHA) stimulated human peripheral blood mononuclear (PBM) cells infected with HIV-1 (strain LAV). The amount of virus produced is determined by measuring the virus-coded reverse transcriptase enzyme. The amount of enzyme produced is proportional to the amount of virus produced.
A. Three-day-old phytohemagglutinin-stimulated PBM cells (10^6 cells/ml) from hepatitis B and HIV-1 seronegative healthy donors were infected with HIV-1 (strain LAV) at a concentration of about 100 times the 50% tissue culture infectious dose (TICD 50) per ml and cultured in the presence and absence of various concentrations of antiviral compounds.
B. Approximately one hour after infection, the medium, with the compound to be tested (2 times the final concentration in medium) or without compound, was added to the flasks (5 ml; final volume 10 ml). AZT was used as a positive control.
C. The cells were exposed to the virus (about 2×10^5 dpm/ml, as determined by reverse transcriptase assay) and then placed in a CO2 incubator. HIV-1 (strain LAV) was obtained from the Center for Disease Control, Atlanta, Ga. The methods used for culturing the PBM cells, harvesting the virus and determining the reverse transcriptase activity were those described by McDougal et al. (J. Immun. Meth. 76, 171-183, 1985) and Spira et al. (J. Clin. Meth. 25, 97-99, 1987), except that fungizone was not included in the medium (see Schinazi, et al., Antimicrob. Agents Chemother. 32, 1784-1787 (1988); Id., 34:1061-1067 (1990)).
D. On day 6, the cells and supernatant were transferred to a 15 ml tube and centrifuged at about 900 g for 10 minutes. Five ml of supernatant were removed and the virus was concentrated by centrifugation at 40,000 rpm for 30 minutes (Beckman 70.1 Ti rotor). The solubilized virus pellet was processed for determination of the levels of reverse transcriptase. Results are expressed in dpm/ml of sampled supernatant. Virus from smaller volumes of supernatant (1 ml) can also be concentrated by centrifugation prior to solubilization and determination of reverse transcriptase levels.

In data set [1] the test system is uninfected human PBM cells. From the text:
The cells were counted after 6 days using a hemacytometer and the trypan blue exclusion method, as described by Schinazi et al., Antimicrobial Agents and Chemotherapy, 22(3), 499 (1982).

The test system of a further data set is HIV-2. Nature of the data set: Antiretroviral activity in different cell systems, HIV-2. Particulars: PBMC (ROD2). The class given is cell-based. How it is done:
Cell lines were obtained from either human donors, AIDS Research and Reference Reagent Program, NIH, Rockville, Md., ATCC, or the Red Cross. The CEM thymidine kinase deficient cells were prepared by sequential passage of CEM cells in the presence of 5-bromo-2′-deoxyuridine.

For data set [2], the system named is HIV. Particulars: compared with AZT; cited from earlier work.
Data set [3] deals with AZT-resistant HIV isolates. As to conditions: in vitro, isolates from patients treated with AZT for longer than 36 weeks; cited from earlier work.
In data set [4] the test system is HIV. Nature of the data set: microbe, parasite or virus in culture. In kind it is cell-based. As to conditions: Human immunodeficiency virus 1; MT4 system.
For data set [5], the target named is T1, HIV-1 reverse transcriptase (RT) (Human immunodeficiency virus type 1 group M subtype B, UniProt P04585).
T1 construct: HIV-1 reverse transcriptase (RT)
Nature of the data set: Inhibition of HIV-1 reverse transcriptase by FTC triphosphate. The class given is biochemical. As to conditions: sequencing analysis, HIV-RT (C-stops). How it is done: Toxicity and pharmacokinetic studies confirm the usefulness of FTC as an antiviral agent for pharmaceutical administration. FTC and its enantiomers are nontoxic to peripheral human bone marrow cells at concentrations up to 50 µM and other cell lines at concentrations up to 200 μM. FTC-TP is a major intracellular metabolite in PBMC and HepG2 cells.

Another data set has as its system human PBM cells. Put plainly: Egress of radiolabeled FTC from human PBM cells. The class given is in vitro ADME. Particulars: human PBM cells after 24 h pulse with 10 μM. How it is done: This study measures the time needed for intracellular levels of triphosphates to decline. Studies were conducted in duplicate. Uninfected cells (2×10^6 ml) were suspended in the appropriate medium supplemented with serum (10 ml per timepoint) and incubated at 37° C. in a 5% CO2 incubator. The radiolabeled FTC concentration was 10 μM. After pulsing the cells with the labeled compound for 24 hours, the cells were thoroughly washed and then replenished with fresh medium without the antiviral drugs (0 hr). At 0, 2, 4, 6, 12, 24, and 48 hours (second incubation time), the cells were removed, and immediately extracted with 60% cold methanol/water. The extract was obtained by centrifugation and removal of the cell pellet. The extracts were lyophilized and then stored at −70° C. Prior to analysis, the material was resuspended in 250 microliters of HPLC buffer and immediately analyzed. Quantitation of intracellular parent drug and metabolic derivatives was conducted by HPLC, using either a Micromeritics or Hewlett-Packard model 1090 PHLC system with an anion exchange Partisil 10 SAX column (Whatman, Inc.), at a flow rate of 1 ml/min, 1 kpsi pressure, with UV detection at 262 nm. The mobile phase consisted of deionized water (A), 2 mM NaH2PO4/16 mM NaOAc (pH=6.6) (B), 15 mM NaH2PO4/120.2 mM NaOAc (pH=6.6) (C), and 100 mM NaH2PO4/800 mM NaOAc (pH=6.6) (D). […]

Data set [6] in a line: CSF/serum ratio in rhesus monkeys. The class given is in vivo. As to conditions: 1 hour after treatment.
[7] abbreviates: human PBM cells, HIV-1 strain LAV, Table 3, read-out: Antiviral EC50.
[8] abbreviates: enantiomers resolved by HPLC (Example 4), Table 4, read-out: EC50.
Setting [9] is: PBM cells, procedure similar to Example 6, read-out: EC50.

Data on 19 compounds can be found in patent US20090048190A1, “Antiviral activity and resolution of 2-hydroxymethyl-5(5-fluorocytosin-1-yl)-1,3-oxathiolane” (priority 1990, published 2009).

Several values for one entry are separate records, joined by “and”; a condition that tells them apart may be missing. Equal values may be shown once. Read-outs that look alike come from different tables or passages of the source.

With `O=c1[nH]c(=O)n([C@H]2CS[C@@H](CO)O2)cc1Br` [DLS-044], in the data set on HIV-1 (strain LAV) (setting [7]), the EC50 is more than 100 µM. Besides, the IC50 in data set [1] was more than 100 µM.

For `Nc1nc(=O)n([C@H]2CS[C@@H](CO)O2)cc1F` [(+)-FTC, (+)-β-D-2-hydroxymethyl-5-(5-fluorocytosin-1-yl)-1,3-oxathiolane], the “% Inhibition (Corrected)” value in the data set on HIV-1 (strain LAV) (0.001 μM) is given as 3.8%; in the data set on HIV-1 (strain LAV) (0.005 μM) it was −10.6%; in the data set on HIV-1 (strain LAV) (0.01 μM) it was −1.8%; with HIV-1 (strain LAV) (0.05 μM), 11.8%; in the data set with HIV-1 (strain LAV) (0.1 μM), 12.7%; in the data set on HIV-1 (strain LAV) (0.5 μM) it was 71.4%. In addition, the DPM/ml with HIV-1 (strain LAV) (0.001 μM) is 94,340 DPM/ml; in the data set on HIV-1 (strain LAV) (0.005 μM), 107,430 DPM/ml; with HIV-1 (strain LAV) (0.01 μM), 99,465 DPM/ml; in the data set on HIV-1 (strain LAV) (0.05 μM), 87,120 DPM/ml; with HIV-1 (strain LAV) (0.1 μM), 86,340 DPM/ml; in the data set with HIV-1 (strain LAV) (0.5 μM) it was 33,225 DPM/ml. The concentration giving a half-maximal response (EC50) in the data set with HIV-1 (strain LAV) (setting [8]) was 0.28 µM; with HIV-1 (strain LAV) (enantiomers resolved by method of Example 3, FIG. 6, read-out: EC50), 0.84 µM; in the data set on HIV-2, 0.026 µM. The compound also gave an IC50 in [1] of more than 100 µM.

Turning to `Nc1nc(=O)n([C@@H]2CS[C@H](CO)O2)cc1C(F)(F)F` [DLS-053], the EC50 in the data set with HIV-1 (strain LAV) (setting [7]) is 60.7 µM.

In the case of `Nc1ccn(C2CSC(CO)O2)c(=O)n1` (racemic) [(±)-BCH-189, 2-hydroxymethyl-5-(cytosin-1-yl)-1,3-oxathiolane], in the data set on HIV [2], the “activity against HIV” value was “approximately the same activity against HIV as AZT”. Moreover, in data set [3], the “inhibition of replication of AZT-resistant HIV isolates” value is “inhibit the replication of AZT-resistant HIV isolates”.

For `Nc1nc(=O)n([C@H]2CS[C@@H](CO)O2)cc1Cl` [DLS-023], the EC50 with HIV-1 (strain LAV) (setting [7]) came out at 38.7 µM.

As for `Cc1cn([C@H]2C[C@H](N=[N+]=[N-])[C@@H](CO)O2)c(=O)[nH]c1=O` [AZT, 3′-azido-3′-deoxythymidine, reference compound], the IC50 in the data set with HIV [4] came out at 0.09 µM.

`CCCC(=O)OC[C@@H]1O[C@H](n2cc(F)c(N)nc2=O)CS1` (racemic) [5′-O-butyrate ester of (±)-FTC]: in the data set on HIV-1 (strain LAV) (setting [9]), the EC50 was 0.0017 µM.

For the compound `O=c1[nH]c(=O)n([C@H]2CS[C@@H](CO)O2)cc1I` [DLS-029], the EC50 in the data set with HIV-1 (strain LAV) (setting [7]) is more than 100 µM. This compound also gave a 50% inhibitory concentration (IC50) in [1] of more than 100 µM.

On to `Nc1nc(=O)n([C@H]2CS[C@@H](CO)O2)cc1Br` [DLS-021], for which, in the data set with HIV-1 (strain LAV) (setting [7]), the EC50 was determined as 77.4 µM.

As to `Nc1nc(=O)n([C@@H]2CS[C@H](COP(=O)(O)OP(=O)(O)OP(=O)(O)O)O2)cc1F` (racemic) [FTC-TP], the DNA chain termination result in [5] was “potent DNA chain terminator”. Besides, the intracellular half-life result in the data set with human PBM cells is given as “approximately 12 hours”.

As to `Cc1cn([C@H]2CS[C@@H](CO)O2)c(=O)nc1N` [DLS-011], the half-maximal effective concentration (EC50) in the data set on HIV-1 (strain LAV) (setting [7]) was more than 10 µM.

As to `Nc1nc(=O)n(C2CSC(CO)O2)cc1F` (single isomer, unassigned; (-)) [(−)-FTC, (−)-β-L-2-hydroxymethyl-5-(5-fluorocytosin-1-yl)-1,3-oxathiolane], the DPM/ml was 76,275 DPM/ml in the data set with HIV-1 (strain LAV) (0.001 μM); 58,590 DPM/ml in the data set on HIV-1 (strain LAV) (0.005 μM); 75,350 DPM/ml in the data set with HIV-1 (strain LAV) (0.01 μM); 28,890 DPM/ml in the data set with HIV-1 (strain LAV) (0.05 μM); 13,175 DPM/ml in the data set on HIV-1 (strain LAV) (0.1 μM); 9,485 DPM/ml in the data set on HIV-1 (strain LAV) (0.5 μM). For the same compound, the results for the EC50 with HIV-1 (strain LAV) (setting [8]), with HIV-1 (strain LAV) (setting [7]) and with HIV-2 were 0.02 µM, 0.008 µM and 0.0007 µM, respectively. Also, the IC50 in data set [1] was more than 100 µM.

For the compound `Nc1nc(=O)n([C@H]2CS[C@@H](CO)O2)cc1I` [DLS-026], the concentration giving a half-maximal response (EC50) in the data set on HIV-1 (strain LAV) (setting [7]) is 0.72 µM.

For `CC(=O)Nc1nc(=O)n(C2CSC(CO)O2)cc1F` (racemic) [N′-acetyl derivative of (±)-FTC], the EC50 with HIV-1 (strain LAV) (setting [9]) came out at 0.0028 µM.

Turning to `O=c1[nH]c(=O)n([C@H]2CS[C@@H](CO)O2)cc1Cl` [DLS-028], the EC50 with HIV-1 (strain LAV) (setting [7]) worked out at 60.8 µM.

`O=c1ccn(C2CSC(CO)O2)c(=O)[nH]1` (stereo not shown) [DLS-009]: the EC50 in the data set on HIV-1 (strain LAV) (setting [7]) is more than 100 µM. The compound also had a 50% inhibitory concentration (IC50) in data set [1] of more than 100 µM.

With `O=c1[nH]c(=O)n([C@H]2CS[C@@H](CO)O2)cc1F` [DLS-027], the EC50 in the data set on HIV-1 (strain LAV) (setting [7]) was more than 100 µM. Further, in [1], the IC50 was more than 100 µM.

Turning to `O=c1[nH]c(=O)n(C2CSC(CO)O2)cc1F` (stereo not shown) [FTU], the “CSF/Serum Ratio of deaminated metabolite (FTU)” value is 0.024 and 0.032 and 0.052 in data set [6] (I.V. FTC 33.3 mg/kg, individual monkeys); 0.036 in data set [6] (I.V. FTC 33.3 mg/kg, mean); 0.026 and 0.037 and 0.055 in data set [6] (P.O. FTC 33.3 mg/kg, individual monkeys); 0.039 in data set [6] (P.O. FTC 33.3 mg/kg, mean).

In the case of `Cc1cn(C2CSC(CO)O2)c(=O)[nH]c1=O` (stereo not shown) [DLS-010], the EC50 in the data set on HIV-1 (strain LAV) (setting [7]) was 64.4 µM.
